Experiments:
Dictyostelium cells = test: Inhibition of chemotactic response to folic acid by cisplatin, ECIS/taxis; format: cell-based, Dictyostelium discoidium; conditions: increasing concentrations of cisplatin, folic acid as chemoattractant
Protocol: These chambers were filled with 300 μL of a 0.5% solution of melted agarose prepared as described above. The thickness of the agarose layer is 4 mm. […]

[1] = system: Dictyostelium discoidium strain NC4A2 cells; test: ECIS/taxis under-agarose chemotaxis assay, cell movement in a folate gradient; format: cell-based
Protocol: Dictyostelium discoidium strain NC4A2 is an axenic cell line derived from the wild type NC4 line. The myosin II heavy chain mutant (HK323) was generated by homologous recombination to delete the coding portion of the gene in the NC4A2 cell line. Cells were maintained in HL5 media in 100 mm petri dishes with media changes every three days. Cells to be used for experimental procedures were harvested at mid-log phase. Cells were centrifuged at 200×g for 5 minutes at room temperature, re-suspended in fresh media and counted with a Z2 particle counter (Coulter, Miami, Fla.). Chambers were loaded with 10^6 cells per well.
Chemotaxis assays were adapted from the under-agarose chemotaxis method. Briefly, a 0.5% solution of GTG agarose (FMC Corporation, Rockland, Me.) was prepared in 1×SM media (10 g Difco Bacto-Peptone, 10 g glucose, 1 g yeast extract, 1.9 g KH2PO4, 0.6 g K2HPO4, 0.43 g MgSO4 per liter, pH 6.5). For chemokinetic assays, 2×SM agarose media was premixed with an equal volume of 2× folic acid and then added to the chamber to harden.
The chemoattractant folic acid (Research Organics, Inc. Cleveland, Ohio) stock at 100 mM was prepared by dissolving 0.44 g folate in 220 ul of 10 M NaOH. The final volume was adjusted to 10 ml with distilled water. The solution was filter sterilized through a 0.2 micron filter, aliquoted and stored frozen at −20° C. in the dark. The folate solution was adjusted to the appropriate concentration and added to wells one hour prior to the addition of cells to allow for establishment of the chemotactic gradient. […] Following this incubation, the cells were washed three times in PDF and then re-suspended in PDF before placement in the cell wells of ECIS/taxis chambers.
The commercially available ECIS electrode configuration (Applied Biophysics, Inc., Troy, N.Y.) consists of 8 chambers per array, each with a large electrode and a small target electrode (see panel A of FIG. 2). These chambers were filled with 300 μL of a 0.5% solution of melted agarose prepared as described above. […]
The chemoattractant was then loaded into one well in appropriate chambers and the gradient was allowed to form for one hour. […] Impedance to this current flow was measured and a resistance value was calculated according to established protocols. […] In the results presented below, the data is presented as normalized resistance, which is calculated as a fraction of the initial resistance of the chamber at the start of the experiment.
A gradient was established by loading 1 mM folate into the chemoattractant well of a modified ECIS chamber, and one hour later Dictyostelium cells were placed in the adjacent cell well. […] In order to visualize the arrival of the cells at the target electrode, the cells exposed to folate were continuously monitored by video microscopy. […]

N.N.[Cl][Pt][Cl] [cisplatin, Cisplatin]
effect on time of arrival of cells at the electrode (Dictyostelium cells): delayed in a manner proportional to the dose of cisplatin

Nc1nc2ncc(CNc3ccc(C(=O)N[C@@H](CCC(=O)O)C(=O)O)cc3)nc2c(=O)[nH]1 [folate, folic acid]
absolute number of cells that arrive at the electrode versus folate dose ([1]; folate 0.16 to 1 mM in chemoattractant well): absolute number of cells that arrive decreases as the dose of folate used to establish the gradient decreases | time of arrival of cells at the target electrode after placement of cells in the cell well ([1]; gradient formed by 1 mM folate): approximately 3.5 hours | average speed of cell movement to the target electrode ([1]; gradient from 1 mM folate): approximately 10 μm/min | time of first small resistance peak (initial cell spreading on the target electrode) ([1]; gradient from 1 mM folate in chemoattractant well, loaded 1 h before cells, wells 2 mm from electrode): 3.75 h

— patent US6723523B2, “System and method for investigating the effect of chemical and other factors on cell movement” (University of Connecticut, priority 2000, dated 2004)
